Data taken from patent publication US20100009907A1, “Glucagon-Like Peptides and Uses Thereof” (AMYLIN PHARMACEUTICALS, INC., priority 2006, published 2010).
Where no end group is shown, it is not given here.

Experiments:
[1] = biological target: T1, rat thyroid carcinoma 6-23 clone 6 cells expressing endogenous GLP-1 receptors (Rattus norvegicus, UniProt P32301); test: GLP-1 cAMP (6-23) cyclase assay; type: cell-based
T1 construct: rat thyroid carcinoma 6-23 clone 6 cells or RINm5F insulinoma cells expressing endogenous GLP-1 receptors; endogenous in cells; host or cells: rat thyroid carcinoma 6-23 clone 6 cells
T1 sequence (P32301 22-463): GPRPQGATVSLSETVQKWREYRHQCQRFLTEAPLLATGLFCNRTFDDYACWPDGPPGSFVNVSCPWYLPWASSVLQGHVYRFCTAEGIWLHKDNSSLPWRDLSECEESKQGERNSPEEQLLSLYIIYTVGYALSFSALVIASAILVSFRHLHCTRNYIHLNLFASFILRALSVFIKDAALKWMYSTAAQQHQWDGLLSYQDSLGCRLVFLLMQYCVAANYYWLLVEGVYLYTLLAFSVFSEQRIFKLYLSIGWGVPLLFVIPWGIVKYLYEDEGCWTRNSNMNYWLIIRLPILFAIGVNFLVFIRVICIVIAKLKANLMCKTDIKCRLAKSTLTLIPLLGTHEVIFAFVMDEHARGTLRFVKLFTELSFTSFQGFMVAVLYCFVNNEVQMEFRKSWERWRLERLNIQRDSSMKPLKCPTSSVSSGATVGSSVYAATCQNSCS
Procedure: (§1) Cells, and peptide or buffer solutions are combined in 384-well plates and incubated at room temperature in air for 30-minutes. cAMP content can then be measured according to recommendations in the Perkin-Elmer AlphaScreen™ kit instructions using the Perkin Elmer Fusion fluorimeter and data are analyzed using XLfit software (IDBS).

[2] = biological target: T2, GLP-1 receptor (RINm5F cell membranes) (Rattus norvegicus, UniProt P32301); test: GLP-1 receptor binding assay (GLP RBA), [125I]GLP-1 displacement; conditions: [125I]GLP-1 tracer
T2 construct: RINm5F insulinoma cells expressing endogenous GLP-1 receptors; endogenous in cells; host or cells: RINm5F cell membranes
T2 sequence (P32301 22-463): T1 sequence (P32301 22-463)
Procedure: Reaction mixtures are filtered through glass filter pads presoaked with 0.3% PEI solution and rinsed with ice-cold phosphate buffered saline. Bound counts are determined using a scintillation counter. Binding affinities are calculated using GraphPad Prism software (GraphPad Software, Inc., San Diego, Calif.).

[3] = biological target: T3, RINm5f cells expressing endogenous GLP-1, calcitonin, and GIP receptors (Rattus norvegicus, UniProt P32301); test: GLP/GIP/CT cAMP (RIN) assay; type: cell-based
T3 construct: RINm5f cells expressing endogenous GLP-1, calcitonin, and GIP receptors; endogenous in cells; host or cells: RINm5f cells
T3 sequence (P32301 22-463): T1 sequence (P32301 22-463)
Procedure: In addition, receptor binding can be measured using cells prepared from confluent cultures of RINm5f cells expressing endogenous GLP-1, calcitonin, and GIP receptors. Cells, and peptide or buffer solution are combined in 384-well plates. After a 30-minute incubation at room temperature in air, cAMP content is measured as recommended in the Perkin-Elmer AlphaScreen kit instructions.
as §1

[4] = Acute food intake assay (FI Assay); type: in vivo, NIH/Swiss mice; conditions: 1000 μg/kg intraperitoneal, relative to vehicle
Procedure: The effect of various test peptides on food intake is investigated using an acute food intake assay. This assay measures food consumption in lean, group-housed, overnight-fasted NIH/Swiss mice. Twelve mice are housed three to a cage. […] Decreased, as well as increased, food intake is measured. Testing of the various doses of the polypeptide generates ED50s.
Female NIH/Swiss mice (8-24 weeks old) are group housed with a 12:12 hour light:dark cycle with lights on at 0600. Water and a standard pelleted mouse chow diet are available ad libitum, except as noted. Animals are fasted starting at approximately 1500 hrs, 1 day prior to experiment. The morning of the experiment, animals are divided into experimental groups.
At time=0 min, all animals are given an intraperitoneal injection of vehicle or compound in an amount ranging from about 63 to 1000 μg/kg, and immediately given a pre-weighed amount (10-15 g) of the standard chow.

DPP-IV = DPP-IV (Homo sapiens, UniProt P27487); test: Stability by DPP IV assay; type: in vitro ADME; conditions: isolated DPP-IV enzyme, DPP-IV approximately 5 mUnit, 37° C., intact peptide remaining, read-out: DDP IV % Stable
DPP-IV, sequence (P27487 whole entry, species assumed): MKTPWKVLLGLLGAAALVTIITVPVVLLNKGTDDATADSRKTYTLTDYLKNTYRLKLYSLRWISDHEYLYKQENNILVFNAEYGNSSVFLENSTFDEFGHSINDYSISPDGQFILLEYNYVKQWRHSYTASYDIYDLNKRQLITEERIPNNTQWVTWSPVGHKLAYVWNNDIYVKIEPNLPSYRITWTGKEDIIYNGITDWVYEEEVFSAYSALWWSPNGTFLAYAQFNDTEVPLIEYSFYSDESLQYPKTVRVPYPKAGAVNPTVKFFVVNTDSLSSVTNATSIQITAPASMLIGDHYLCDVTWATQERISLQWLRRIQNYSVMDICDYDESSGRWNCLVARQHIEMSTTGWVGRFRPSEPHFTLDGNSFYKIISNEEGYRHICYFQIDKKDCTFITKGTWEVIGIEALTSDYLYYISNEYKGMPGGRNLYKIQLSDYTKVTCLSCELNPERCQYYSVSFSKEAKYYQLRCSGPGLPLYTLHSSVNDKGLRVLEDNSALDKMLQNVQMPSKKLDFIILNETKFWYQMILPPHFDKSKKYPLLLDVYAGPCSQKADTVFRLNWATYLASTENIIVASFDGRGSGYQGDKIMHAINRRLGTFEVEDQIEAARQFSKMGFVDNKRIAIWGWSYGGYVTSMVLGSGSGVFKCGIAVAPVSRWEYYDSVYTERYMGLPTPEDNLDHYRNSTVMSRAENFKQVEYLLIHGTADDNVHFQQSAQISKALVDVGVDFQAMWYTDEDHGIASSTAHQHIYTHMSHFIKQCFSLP
Procedure: DPP-IV, approximately 5 mUnit in 5 mM Tris-HCl was added to 625 μL HEPES buffer (25 mM) in a 1.5 mL polypropylene microcentrifuge tube with an O-ring seal to prevent evaporation. Peptide stock solution, 70 μL (300 μM in 50% acetonitrile) was carefully added to this and mixed by brief manual shaking. Next, the solution was aliquoted into six tubes (6×100 μl. One tube contained 200 μL Stop solution (50% acetonitrile and 1% formic acid) that was used to determine the initial concentration of peptide (t=0). All six aliquots were then incubated at 37° C. while mixing at 500 RPM in the Vortemp 56 incubator. The digestion was stopped at 10 min intervals by adding 200 μL stop solution. The tube was then placed back into the incubator for 50 min. The solution was centrifuged at 19000×g for 10 minutes at room temperature. The supernatant was removed and 200 μL supernatant was transferred to an autosampler vials for analysis.
The most intense ion of the intact peptide was monitored to determine the rates of degradation and to quantify the amount of intact peptide remaining in the solution.

Row | Compound | EC50 [1] [nM] | IC50 [2] [nM] | GLP/GIP/CT cAMP(RIN) EC50 [3] [nM] | other results
1 | CC[C@H](C)[C@H](NC(=O)[C@H](CC(C)C)NC(=O)[C@H](Cc1c[nH]c2ccccc12)NC(=O)[C@H](CC(=O)O)NC(=O)[C@@H](NC(=O)[C@H](Cc1ccccc1)NC(=O)[C@H](CCC(=O)O)NC(=O)[C@H](CCCCN)NC(=O)[C@H](C)NC(=O)[C@H](C)NC(=O)[C@H](CCCCN)NC(=O)[C@H](CCC(=O)O)NC(=O)[C@H](CC(=O)O)NC(=O)[C@H](CC(C)C)NC(=O)[C@H](CCC(N)=O)NC(=O)[C@H](CCC(N)=O)NC(=O)[C@@H](NC(=O)[C@@H](NC(=O)[C@H](CC(=O)O)NC(=O)[C@H](CO)NC(=O)[C@@H](NC(=O)[C@H](Cc1ccccc1)NC(=O)[C@@H](NC(=O)CNC(=O)[C@H](CCC(=O)O)NC(=O)[C@H](C)NC(=O)[C@@H](N)Cc1c[nH]cn1)[C@@H](C)O)[C@@H](C)O)C(C)C)[C@@H](C)O)[C@@H](C)CC)C(=O)N[C@@H](CC(N)=O)C(N)=O [compound 7] | – | 3 | 4.7 | –
2 | HAEFTYTNDVTEYLEEKAAKEFIEWLIKGGPSSGAPPPS-NH2 [compound 19] | – | – | – | Food Intake % inhibition 30 min [4]: 51%; Food Intake % inhibition 60 min [4]: 67%; Food Intake % inhibition 120 min [4]: 75%; Food Intake % inhibition 180 min [4]: 77%
3 | HAEGTFTNDMTNYLEEKAAKEFVGWLIKGRS-NH2 (C-terminus assumed) [compound 6] | – | 1 | 1.23 | –
4 | HADGTYTSDVSSYLQDQAAKDFITWLKSGQPKPDAVET-NH2 [compound 48] | – | 34 | 14 | –
5 | CC[C@H](C)[C@H](NC(=O)[C@H](CC(C)C)NC(=O)[C@H](Cc1c[nH]c2ccccc12)NC(=O)[C@H](CC(=O)O)NC(=O)[C@@H](NC(=O)[C@H](Cc1ccccc1)NC(=O)[C@H](CCC(=O)O)NC(=O)[C@H](CCCCN)NC(=O)[C@H](C)NC(=O)[C@H](C)NC(=O)[C@H](CCCCN)NC(=O)[C@H](CCC(=O)O)NC(=O)[C@H](CC(=O)O)NC(=O)[C@H](CC(C)C)NC(=O)[C@H](CCC(N)=O)NC(=O)[C@H](CCC(N)=O)NC(=O)[C@@H](NC(=O)[C@@H](NC(=O)[C@H](CC(=O)O)NC(=O)[C@H](CO)NC(=O)[C@@H](NC(=O)[C@H](Cc1ccccc1)NC(=O)[C@@H](NC(=O)CNC(=O)[C@H](CCC(=O)O)NC(=O)[C@H](C)NC(=O)[C@@H](N)Cc1c[nH]cn1)[C@@H](C)O)[C@@H](C)O)C(C)C)[C@@H](C)O)[C@@H](C)CC)C(=O)N[C@@H](CC(N)=O)C(=O)NCC(=O)NCC(=O)N1CCC[C@H]1C(=O)N[C@@H](CO)C(=O)N[C@@H](CCCCN)C(=O)N[C@@H](CCC(=O)O)C(=O)N[C@H](C(=O)N[C@H](C(=O)N[C@@H](CO)C(=O)O)[C@@H](C)CC)[C@@H](C)CC [compound 1] | – | 3 | 1.9 | remaining at 50 min, 30 µM (DPP-IV): 99%; Food Intake % inhibition 30 min [4]: 56%; Food Intake % inhibition 60 min [4]: 69%; Food Intake % inhibition 120 min [4]: 73%; Food Intake % inhibition 180 min [4]: 72%
6 | CC[C@H](C)[C@H](NC(=O)[C@H](Cc1ccccc1)NC(=O)[C@H](CCC(=O)O)NC(=O)[C@H](CCCCN)NC(=O)[C@H](C)NC(=O)[C@H](C)NC(=O)[C@H](CCC(N)=O)NC(=O)CNC(=O)[C@H](CCC(=O)O)NC(=O)[C@H](CC(C)C)NC(=O)[C@H](Cc1ccc(O)cc1)NC(=O)[C@H](CO)NC(=O)[C@H](CO)NC(=O)[C@@H](NC(=O)[C@H](CC(=O)O)NC(=O)[C@H](CO)NC(=O)[C@@H](NC(=O)[C@H](Cc1ccccc1)NC(=O)[C@@H](NC(=O)CNC(=O)[C@H](CCC(=O)O)NC(=O)[C@H](C)NC(=O)[C@@H](N)Cc1c[nH]cn1)[C@@H](C)O)[C@@H](C)O)C(C)C)C(=O)N[C@@H](C)C(=O)N[C@@H](Cc1c[nH]c2ccccc12)C(=O)N[C@@H](CC(C)C)C(=O)N[C@H](C(=O)N[C@@H](CCCCN)C(=O)NCC(=O)N[C@@H](CCCNC(=N)N)C(N)=O)C(C)C [compound 3] | – | – | – | Food Intake % inhibition 30 min [4]: 13%; Food Intake % inhibition 60 min [4]: 13%; Food Intake % inhibition 120 min [4]: 11%
7 | CC[C@H](C)[C@H](NC(=O)[C@H](CC(C)C)NC(=O)[C@H](Cc1c[nH]c2ccccc12)NC(=O)[C@H](CCC(=O)O)NC(=O)[C@@H](NC(=O)[C@H](Cc1ccccc1)NC(=O)[C@H](CCC(=O)O)NC(=O)[C@H](CCCCN)NC(=O)[C@H](C)NC(=O)[C@H](C)NC(=O)[C@H](CCCCN)NC(=O)[C@H](CCC(=O)O)NC(=O)[C@H](CCC(=O)O)NC(=O)[C@H](CC(C)C)NC(=O)[C@H](Cc1ccc(O)cc1)NC(=O)[C@H](CCC(=O)O)NC(=O)[C@@H](NC(=O)[C@@H](NC(=O)[C@H](CC(=O)O)NC(=O)[C@H](CC(N)=O)NC(=O)[C@@H](NC(=O)[C@H](Cc1ccc(O)cc1)NC(=O)[C@@H](NC(=O)CNC(=O)[C@H](CCC(=O)O)NC(=O)[C@H](C)NC(=O)[C@@H](N)Cc1c[nH]cn1)[C@@H](C)O)[C@@H](C)O)C(C)C)[C@@H](C)O)[C@@H](C)CC)C(=O)N[C@@H](CCCCN)C(=O)NCC(=O)N[C@@H](CCCCN)C(=O)N1CCC[C@H]1C(=O)N[C@@H](CCCCN)C(=O)N[C@@H](CCCCN)C(=O)N[C@H](C(=O)N[C@@H](CCCNC(=N)N)C(=O)N[C@@H](Cc1ccc(O)cc1)C(=O)N[C@@H](CO)C(N)=O)[C@@H](C)CC [compound 2] | – | 0.1 | 0.36 | –
8 | EGTYTNDVTEYLEEKAAKEFIEWLIKGKPKKIRYS-NH2 (C-terminus assumed) [compound 37] | > 1000 | 22 | – | –

Second part, led by results:

Row | EC50 [1] [nM] | IC50 [2] [nM] | GLP/GIP/CT cAMP(RIN) EC50 [3] [nM] | Compound | other results
9 | > 1000 | – | – | HAEGTYTNDTEYLEEKAAKEFIEWLIKGKPKKIRYS-NH2 (C-terminus assumed) [compound 39] | –
10 | > 1000 | – | – | HAEGTYTNDVTEYLEEAAKEFIEWLIKGKPKKIRYS-NH2 (C-terminus assumed) [compound 30] | –
11 | – | 18 | 18 | HAEGTFTSDVTQQLDEKAAKEFIDWLINPGSEGIKSI-NH2 (C-terminus assumed) [compound 14] | –
12 | 0.22 | – | – | CC[C@H](C)[C@H](NC(=O)[C@H](CC(C)C)NC(=O)[C@H](Cc1c[nH]c2ccccc12)NC(=O)[C@H](CCC(=O)O)NC(=O)[C@@H](NC(=O)[C@H](Cc1ccccc1)NC(=O)[C@H](CCC(=O)O)NC(=O)[C@H](CCCCN)NC(=O)[C@H](C)NC(=O)[C@H](C)NC(=O)[C@H](CCCCN)NC(=O)[C@H](CCC(=O)O)NC(=O)[C@H](CCC(=O)O)NC(=O)[C@H](CC(C)C)NC(=O)[C@H](Cc1ccc(O)cc1)NC(=O)[C@H](CCC(=O)O)NC(=O)[C@@H](NC(=O)[C@@H](NC(=O)[C@H](CC(=O)O)NC(=O)[C@H](CC(N)=O)NC(=O)[C@@H](NC(=O)[C@H](Cc1ccc(O)cc1)NC(=O)[C@@H](NC(=O)CNC(=O)[C@H](CCC(=O)O)NC(=O)[C@H](C)NC(=O)[C@@H](N)Cc1c[nH]cn1)[C@@H](C)O)[C@@H](C)O)C(C)C)[C@@H](C)O)[C@@H](C)CC)C(N)=O [compound 42] | –
